Ends that are not written are not given here.
Legend:
HUVEC monolayers = assay: Peptide competitive inhibition assay: stationary adhesion of Tp0751-expressing B. burgdorferi (Bb-Tp0751) to HUVEC monolayers; format: cell-based, human; settings: for Effect on adhesion of Bb-Tp0751 to HUVEC monolayers: HUVECs on matrigel pre-incubated with 0.1 μg peptide per well for 3 h at 37°C, peptide removed, bacteria 12 h at 36°C, GFP bacteria counted in ten FOV, 400x, compared with scrambled peptide
Procedure: Fig 5 Tp0751 peptide 10 inhibits adhesion of Tp0751-expressing B. burgdorferi to HUVEC monolayers. (A) Schematic showing the experimental design of the competitive inhibition assay. Confluent HUVEC monolayers seeded on artificial basement membrane were preincubated with synthetic Tp0751 peptides (p4, p6, p10, p11, p4scr, p6scr, and p10scr1) to allow for peptide-endothelial cell interactions. HUVECs were then co-incubated with parent (negative control) or Tp0751-expressing B. burgdorferi strains to assess the competitive inhibition capacity of the synthetic Tp0751 peptides. After washing to remove non-adherent bacteria, B. burgdorferi adhesion to HUVECs was quantified using fluorescence microscopy to count the number of adherent bacteria per field of view (FOV) at 400x magnification. (B) Bar graph illustrating the number of adherent B. burgdorferi per FOV. Mean counts ± SEM from ten FOV for each biological replicate are presented with standard error bars. For statistical analyses, attachment by strain Bb-Tp0751 to HUVEC monolayers preincubated with peptides p4, p6, and p10 was compared to the attachment of strain Bb-Tp0751 in the presence of corresponding scrambled peptides, using the Student’s two-tailed t-test. […] The parent and Bb-Tp0751 strains are indicated by clear white bars and striped colored bars, respectively. […] Mean counts ± SEM from ten FOV for each biological replicate are presented with standard error bars. Statistical analysis, was performed using the Student’s two-tailed t-test.
Human umbilical vein endothelial cells (HUVECs) pooled from multiple donors and purchased from Lonza (Allendale, NJ) were cultured in endothelial growth medium-2 (EGM-2) (Lonza) at 37°C in an atmosphere of 5% CO2, as per manufacturer’s instructions. B. burgdorferi strains were cultivated at 36°C in an atmosphere of 1.5% CO2 in BSK-II medium prepared in-house with appropriate antibiotics (100 μg/mL gentamycin, 200 μg/mL kanamycin).
Stationary adhesion assays were adapted from Szczepanski and colleagues and Cameron and colleagues. HUVECs (passage 2–3) were seeded in 4-well chamber slides (Nalge Nunc International, Rochester, NY), coated with 500 μg/mL phenol red-free matrigel (Corning, Tewksbury, MA) and grown 20 h at 37°C in 5% CO2 to form confluent monolayers. Synthetic Tp0751 peptides (p4, p6, p10, p11, […], p4scr, p6scr, and p10scr1) were diluted to 500 μg/ml in HEPES buffered saline solution (Lonza) and HUVECs were pre-incubated with 0.1 μg of Tp0751 peptide per well for 3 h at 37°C in 5% CO2. Peptide solutions were removed from HUVECs prior to the addition of bacteria. Borrelia burgdorferi strains were cultured in biological triplicate, and two days prior to the experiment, B. burgdorferi cultures were passaged to 6x10^5 cells/ml and grown for 48 h to reach a concentration of 2x10^7 cells/ml. Borrelia burgdorferi cultures were then centrifuged and resuspended in a 3:1 mixture of BSK-II:EGM-2 and 1.4x10^7 cells of each biological replicate were added to HUVECs in duplicate wells. […] Quantitation of B. burgdorferi adhesion to HUVECs was performed by counting GFP-expressing bacteria in ten fields of view (FOV) from duplicate wells for each biological replicate under 400X magnification on a Nikon 80i fluorescence microscope (Meridian Instrument Company, Inc., Kent, WA) fitted with a monochrome digital camera, a dark-field condenser, and fluorescein filter (Excelitas Technologies, Mississauga, ON). […]

fibronectin = assay: Initial (single point) binding screen of Tp0751 peptide library to immobilized fibronectin; parameters: species or system human; settings: absorbance 600 nm, three wells, two independent experiments, Student's two-tailed t-test against non-binding peptides
Procedure: (§1) Fig 3 Tp0751 lipocalin derived peptides directly bind host proteins. (A) Thirteen overlapping Tp0751 synthetic 24-mer peptides were evaluated for binding to immobilized fibrinogen, fibronectin, collagen type I, and collagen type IV. Average absorbance readings (600 nm) from three wells are presented with bars indicating standard error and the results are representative of two independent experiments. […] Average absorbance readings (600 nm) from three wells are presented with bars indicating standard error and the results are representative of two independent experiments. […] The strand colored in cyan reflects the overlap of p10 and p11. Color coded sequences of peptides p4, p6, p10, p10scr1, and p10scr2 are shown. Arginine residues in the p10 peptides are indicated by underlining.
(§2) Plasminogen-depleted human fibrinogen (Calbiochem) was purchased from VWR International. Laminin isolated from Engelbreth-Holm-Swarm murine sarcoma basement membrane and fibronectin isolated from human plasma were purchased from Sigma-Aldrich Canada Ltd. (Oakville, ON). Human collagen types I and IV (Rockland Immunochemicals, Inc.) were purchased from VWR International.
(§3) To test for binding of synthetic Tp0751 peptides p1-p13, p1scr, p6scr, p10scr1, and p10scr2 to the host proteins fibrinogen, fibronectin, laminin, collagen type I, and collagen type IV, initial binding assays were performed as described previously. For dose-dependent binding assays, recombinant proteins were serially diluted 1:2 from either 10 μM to 0.156 μm (Tp0751_78A used for crystallization and Tp0751_78 WT) or 40 μm to 0.625 μm (peptides p4, p6, p10, p11, p10scr1, and p10scr2). Average absorbance readings (600 nm) from three wells are presented with bars indicating standard error and the results are representative of two independent experiments. Plates were read at 600 nm with a BioTek enzyme-linked immunosorbent assay plate reader (Fisher Scientific, Ottawa, ON). All statistical analyses were performed using the Student’s two-tailed t-test. Non-linear regression curves were fitted and apparent dissociation constants (K d) were calculated using GraphPad Prism data analysis software (San Diego, CA).

collagen type I = assay: Initial (single point) binding screen of Tp0751 peptide library to immobilized collagen type I; settings: immobilized human collagen type I; absorbance 600 nm, three wells, two independent experiments; Student's two-tailed t-test against non-binding peptides
Procedure: as §1, §2, §3

Sequence | Effect on adhesion of Bb-Tp0751 to HUVEC monolayers (HUVEC monolayers) | Binding to fibronectin in initial binding screen (fibronectin) | Binding to collagen I in initial binding screen (collagen type I) | Peptide concentration giving statistically significant lower binding of Bb-Tp0751 to HUVEC monolayers compared with p8 (HUVEC monolayers; preincubation with 0-545 nM peptide, Student's two-tailed t-test, p≤0.005) [nM]
HHHHHHGGAAQTHTQPPVQTAMRIALWNRA [p4] | did not alter adhesion | statistically significant binding | statistically significant binding | 
HHHHHHQGALQHLLAGLWIQTEISPNSGDI [p6] | did not alter adhesion | statistically significant binding | statistically significant binding | 
HHHHHHRKTVSFLTRNTAISSIRRRLEVTF [p10] | significantly reduced binding | significant binding | not to collagen I | ≥ 5.45
HHHHHHSIRRRLEVTFESHEVIHVRAVEDV [p11] | did not alter adhesion | statistically significant binding | statistically significant binding | 
